Starred links: 1 amine or outer side, 2 acyl side, 3 side chain; linkers in the order of their positions; H or OH if unused. Non-standard residues stand in square brackets, D forms with d. Residues, ends and D or L forms follow the SMILES beside them. No end group written: not given here. ξ: configuration not given here. *: point of attachment. X1 = CC(=O)N[C@@H]1[C@@H](O)[C@@H](O)[C@@H](C=NO[C@@H]2O[C@H](CO)[C@H](O)[C@H](O)[C@H]2O)O[C@@H]1*; X2 = CC(=O)N[C@H]1[C@@H](ON=C(C)C[C@H](N[*:1])C(=O)[*:2])O[C@H](CO)[C@H](O)[C@@H]1O; αGalNAc = CC(=O)N[C@@H]1[C@@H](O)[C@@H](O)[C@@H](CO)O[C@@H]1*; Thr(3ξ) = CC(O)[C@H](N)C(=O)O
Assays:
E. coli D22 [1] = assay: Bacterial growth inhibition assays (Example IV); type: cell-based
Experimental: General methods: Galactose oxidase (EC 1.1.3.9) (450 units/mg) was purchased from Sigma. All chemical reagents were obtained from commercial suppliers and used without further purification. For flash chromatography, 230-400 mesh silica gel 60 (E. Merck No. 9385) was employed. Analytical thin layer chromatography (tlc) was conducted on Analtech Uniplate silica gel plates with detection by ceric ammonium molybdate and/or by UV light. Reversed-phase high pressure liquid chromatography (RP-HPLC) was performed on a Rainin Dynamax SD-200 system using Microsorb and Dynamax C18 reversed-phase columns (analytical: 4.6 mm ID×25 cm, 1 mL/min; semi-preparative: 10 mm ID×25 cm, 3 mL/min), and ultraviolet detection (230 nm) was performed with a Rainin Dynamax UV-1 detector. The E. coli strain D22 used in bacterial growth inhibition assays was obtained from the E. Coli Genetic Stock Center at Yale University.
Bacterial growth inhibition assays. […] Peptide concentrations were determined by measuring dry weight, and assuming 80% of that weight was peptide and the remainder water and salts. […] Growth was determined by measuring the absorbance at 595 nm on a BioRad 550 microplate reader. Percent inhibition was defined as ((Ao−Ax)/Ao)*100), where Ao was the absorbance of a control well lacking peptide and Ax was the absorbance of a well with peptide.

bacterial growth = conditions: cited from earlier work; for enhancement of bacteriostatic potency by the O-linked glycan (GalNAc residue) at Thr11: glycosylated vs unglycosylated peptide
E. coli D22 [2] = assay: growth inhibition assay (Example II); type: cell-based; conditions: for IC50: E. coli D22 in LB media with streptomycin, 24 h at rt, absorbance at 415 nm, read-out: IC50 in blocking bacterial growth
Experimental: 10. The growth inhibition assay was performed essentially as described by Bulet et al.^3 Sterile 96-well plates were used, with a final volume of 100 μL per well. This volume consisted of 90 μL of mid-logarithmnic phase culture of E. coli D22 in LB media containing streptomycin (50 μg/mL), added to 10 μL of serially diluted peptide (native drosocin (1), unglycosylated drosocin or neoglycopeptide 2) in water. Final peptide concentrations ranged from 10^−8 to 10^−5 M. Plates were incubated for 24 h at rt. Bacterial growth was determined by measuring the absorbance at 415 nm on a BioRad 550 microplate reader. Measurements were taken at t=0 h and t=24 h, and the change in absorbance (optical density) was recorded.

Compound | enhancement of bacteriostatic potency by the O-linked glycan (GalNAc residue) at Thr11 (bacterial growth) | IC50 (E. coli D22 [2]) [nM] | further results
CC[C@H](C)[C@H](NC(=O)[C@@H]1CCCN1C(=O)[C@H](CCCNC(=N)N)NC(=O)[C@@H]1CCCN1C(=O)[C@H](Cc1c[nH]cn1)NC(=O)[C@H](CO)NC(=O)[C@@H](NC(=O)[C@@H]1CCCN1C(=O)[C@H](CCCNC(=N)N)NC(=O)[C@@H]1CCCN1C(=O)[C@H](CO)NC(=O)[C@H](Cc1ccc(O)cc1)NC(=O)[C@@H]1CCCN1C(=O)[C@H](CCCNC(=N)N)NC(=O)[C@@H]1CCCN1C(=O)[C@H](CCCCN)NC(=O)CN)[C@@H](C)O[C@H]1O[C@H](C=NO[C@@H]2O[C@H](CO)[C@H](O)[C@H](O)[C@H]2O)[C@H](O)[C@H](O)[C@H]1NC(C)=O)C(=O)N[C@@H](CCCNC(=N)N)C(=O)N[C@H](C(=O)O)C(C)C [Glycopeptide 5] (H-GKPRPYSPRPT(X1)SHPRPIRV-OH) |  |  | potency in blocking bacterial growth relative to unglycosylated drosocin (E. coli D22 [1]; E. coli D22, 6 h at 25° C.): 3 to 4 fold
CC[C@H](C)[C@H](NC(=O)[C@@H]1CCCN1C(=O)[C@H](CCCNC(=N)N)NC(=O)[C@@H]1CCCN1C(=O)[C@H](Cc1c[nH]cn1)NC(=O)[C@H](CO)NC(=O)[C@@H](NC(=O)[C@@H]1CCCN1C(=O)[C@H](CCCNC(=N)N)NC(=O)[C@@H]1CCCN1C(=O)[C@H](CO)NC(=O)[C@H](Cc1ccc(O)cc1)NC(=O)[C@@H]1CCCN1C(=O)[C@H](CCCNC(=N)N)NC(=O)[C@@H]1CCCN1C(=O)[C@H](CCCCN)NC(=O)CN)C(C)O[C@H]1O[C@H](CO)[C@H](O)[C@H](O)[C@H]1NC(C)=O)C(=O)N[C@@H](CCCNC(=N)N)C(=O)N[C@H](C(=O)O)C(C)C (stereo partly drawn) [native drosocin (1), H2N-Gly-Lys-Pro-Arg-Pro-Tyr-Ser-Pro-Arg-Pro-Thr(α-D-GalNAc)-Ser-His-Pro-Arg-Pro-Ile-Arg-Val-OH] (H-GKPRPYSPRP[Thr(3ξ)](αGalNAc)SHPRPIRV-OH) | approximately five-fold | 100 ± 20 | 
CC[C@H](C)[C@H](NC(=O)[C@@H]1CCCN1C(=O)[C@H](CCCNC(=N)N)NC(=O)[C@@H]1CCCN1C(=O)[C@H](Cc1c[nH]cn1)NC(=O)[C@H](CO)NC(=O)[C@H](CC(C)=NO[C@H]1O[C@H](CO)[C@H](O)[C@H](O)[C@H]1NC(C)=O)NC(=O)[C@@H]1CCCN1C(=O)[C@H](CCCNC(=N)N)NC(=O)[C@@H]1CCCN1C(=O)[C@H](CO)NC(=O)[C@H](Cc1ccc(O)cc1)NC(=O)[C@@H]1CCCN1C(=O)[C@H](CCCNC(=N)N)NC(=O)[C@@H]1CCCN1C(=O)[C@H](CCCCN)NC(=O)CN)C(=O)N[C@@H](CCCNC(=N)N)C(=O)N[C@H](C(=O)O)C(C)C [neoglycopeptide 2] (H-GKPRPYSPRP[X2]SHPRPIRV-OH) |  | 160 ± 40 | potency in blocking bacterial growth relative to unglycosylated drosocin (E. coli D22 [2]; E. coli D22, 24 h at rt): four-fold more potent
GKPRPYSPRPTSHPRPIRV [drosocin] | five-fold |  | enhancement of potency in blocking bacterial growth by a single O-linked disaccharide (Gal-GalNAc) at Thr11 (bacterial growth; depending on the target bacterial strain): 2-8 fold
H-GKPRPYSPRPTSHPRPIRV-OH [unglycosylated drosocin] |  | 630 ± 50 | IC50 (E. coli D22 [1]; E. coli D22 in LB media with streptomycin, 6 h at 25° C., absorbance at 595 nm, read-out: IC50 in blocking bacterial growth): 400 ± 50 nM
